Columns and labels:
IDO1 [1] = target: T1, IDO1 (Homo sapiens, UniProt P14902); experiment: Cell-based IDO1 inhibitory assay on IFN-γ treated HeLa cells; set-up: endogenous in cells; host or cells: HeLa cells treated with human IFN-γ
Method: (§1) All active compounds were additionally evaluated on a cellular level, starting with the determination of cytotoxicity on Hep G2 cell line using the MTS assay (Figure 3), where inner salt of [3-(4,5-dimethylthiazol-2-yl)-5-(3-carboxymethoxyphenyl)-2-(4-sulfophenyl)-2H-tetrazolium is converted to formazan product, its quantity is directly proportional to the number of living cells. Since the majority of compounds were only partially soluble in a cell medium at concentrations above 100 μM, their effect on cell viability was measured at 50 μM, 10 μM, and 1 μM. […] Taken together, the results obtained from cellular tests reminded us of the necessity to consider the physicochemical properties of compounds even at the early stages of design.
HeLa cells were seeded in 96-well plates (2 × 10^4 cells/well) and maintained in Dulbecco’s modified Eagle’s medium, supplemented with 10% fetal bovine serum (both from Thermo Fisher Scientific, Waltham, MA, USA) and 100 µg/mL gentamicin (Sigma-Aldrich, St. Louis, MO, USA). Following overnight incubation in a humidified chamber at 37 °C and 5% CO2 cells were treated with human IFN-γ (50 ng/mL final concentration). […] The absorbance (λABS = 480 nm) of the yellow color derivate formed after 10 min was measured using a microplate reader (Synergy H4; BioTek Instruments, Inc., Winooski, VT, USA).
Target sequence in this assay (P14902 whole entry): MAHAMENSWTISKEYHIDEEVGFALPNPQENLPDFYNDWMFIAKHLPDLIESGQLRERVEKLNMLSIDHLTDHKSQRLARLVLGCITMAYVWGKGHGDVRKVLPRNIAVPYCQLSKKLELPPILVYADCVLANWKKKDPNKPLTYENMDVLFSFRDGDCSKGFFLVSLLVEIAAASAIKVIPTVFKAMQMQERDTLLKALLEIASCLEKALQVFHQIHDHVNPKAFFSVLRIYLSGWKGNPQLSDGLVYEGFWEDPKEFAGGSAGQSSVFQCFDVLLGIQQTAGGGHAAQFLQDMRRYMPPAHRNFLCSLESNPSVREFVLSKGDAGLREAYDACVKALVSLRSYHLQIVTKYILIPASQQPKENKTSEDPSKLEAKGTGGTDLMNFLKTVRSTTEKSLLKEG

IDO1 [2] = target: T1, IDO1; experiment: hIDO1 inhibitory potency evaluation (fluorescence assay, NFK-derived fluorophore); format: biochemical; set-up: gene encoding human IDO1 residues 6-403 His-tagged at the N-terminus; His tag (N); made in house; host or cells: Escherichia coli NiCo21
Target sequence in this assay (P14902 6-403): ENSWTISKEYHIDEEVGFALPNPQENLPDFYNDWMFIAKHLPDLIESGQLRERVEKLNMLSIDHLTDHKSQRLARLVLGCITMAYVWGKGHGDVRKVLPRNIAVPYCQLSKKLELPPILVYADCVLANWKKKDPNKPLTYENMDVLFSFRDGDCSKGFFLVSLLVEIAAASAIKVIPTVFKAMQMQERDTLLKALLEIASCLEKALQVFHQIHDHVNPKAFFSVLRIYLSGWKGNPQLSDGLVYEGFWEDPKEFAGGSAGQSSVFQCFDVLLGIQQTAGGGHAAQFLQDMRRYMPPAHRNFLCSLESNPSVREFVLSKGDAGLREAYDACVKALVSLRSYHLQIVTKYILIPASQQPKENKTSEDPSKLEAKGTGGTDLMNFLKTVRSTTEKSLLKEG

Hep G2 cell line = experiment: Cytotoxicity, MTS cell proliferation assay; format: cell-based; details: Hep G2 cells
Method: as §1
Cytotoxicity of the compounds was determined on HepG2 cell line using the MTS cell proliferation assay (CellTiter 96 AQueous One Solution Cell Proliferation Assay, Promega, Madison, WI, USA). The cells were seeded in 96-well plates (3 × 10^4 cells/well) and maintained in Dulbecco’s Modified Eagle’s Medium, supplemented with 10% fetal bovine serum (both from Thermo Fisher Scientific, Waltham, MA, USA) and 100 µg/mL gentamicin (Sigma-Aldrich, St. Louis, MO, USA). Following overnight incubation in a humidified chamber at 37 °C and 5% CO2 cells were treated with the compounds of interest at final concentrations of 1 µM, 10 µM, 50 µM, 100 µM, 150 µM, and 200 µM. After 24h incubation under the same conditions, 100 µL of the medium from each well were collected and mixed with 10 µL of MTS solution. Following 3h incubation, the absorbance (λABS = 490 nm) was measured using a microplate reader (Synergy H4; BioTek Instruments, Inc., Winooski, VT, USA). The results are expressed as means of triplicates ± standard deviation of three independent experiments.

hTDO = target: T2, hTDO (Homo sapiens, UniProt P48775); experiment: hTDO inhibitory potency evaluation (fluorescence assay); format: biochemical
T2 construct: purchased Vinci-Biochem
Method: Additionally, to determine IDO1 selectivity, all final compounds were assayed for their inhibitory potencies towards hIDO2 and hTDO. For this purpose, two new protocols were developed based on the published fluorescence assay for hIDO1 [25]. Sodium ascorbate, methylene blue, and bovine catalase were used in the same concentrations as for hIDO1. 50 mM phosphate buffers with pH values of 7.5 and 7.0 were used for hIDO2 and hTDO, respectively, as has been already mentioned before. First, the activities of hIDO2 and hTDO were determined at four different concentrations. […] Additionally, the effect of DMSO concentration on enzyme activity was investigated. […] The optimal hIDO2 and hTDO assay concentrations of the substrate L-Trp were determined to be 4 mM and 500 μM, respectively.
The activity of the compounds on hTDO was determined according to the previously reported fluorescence protocol for hIDO1 [25] and reported absorbance protocols for hTDO [30] with several modifications. Recombinant hTDO was purchased from Vinci-Biochem (Vinci-Biochem, Vinci, Italy), bovine catalase was purchased from Sigma-Aldrich (Sigma-Aldrich, St. Louis, MO, USA). Prior to the measurement of activity for compounds, the enzyme activity was determined, and optimal assay enzyme concentration was selected. The amounts of reagents needed to perform the assay were optimized. Briefly, the reagents needed were dissolved in 50 mM potassium phosphate buffer (pH 7.0, 0.01%, v/v Tween 20), the reaction was performed in black 384-well microplates. After the addition of 1 μL of 100 mM sodium ascorbate neutralized with equimolar amount of 1 M NaOH, 1 μL of 100 μM methylene blue, 1 μL of 1 mg/mL bovine catalase, 0.5 μL of DMSO (negative control) or solution of a compound, 5 μL of 300 nM hTDO and 1.5 μL of 3.3 mM L-Trp were added and the microplate was incubated for 60 min at 37 °C. The reaction was quenched with the addition of 10 μL of 400 mM piperidine solution in MilliQ water and the formation of the examined fluorophore began following incubation at 65 °C for 20 min. The production of NFK-derived fluorophore (λEX = 400 nm, λEM = 500 nm) was measured using a microplate reader (Synergy H4; BioTek Instruments, Inc., Winooski, VT, USA) after 60 min post-incubation at room temperature. In the preliminary testing compounds were tested at 100 μM with activities determined as residual activities—RA, which were calculated to% of inhibition, presented in Table 1 and Table 2 (% of inhibition = 100% − RA). All determinations were carried out in duplicates.

T2 sequence (P48775 whole entry): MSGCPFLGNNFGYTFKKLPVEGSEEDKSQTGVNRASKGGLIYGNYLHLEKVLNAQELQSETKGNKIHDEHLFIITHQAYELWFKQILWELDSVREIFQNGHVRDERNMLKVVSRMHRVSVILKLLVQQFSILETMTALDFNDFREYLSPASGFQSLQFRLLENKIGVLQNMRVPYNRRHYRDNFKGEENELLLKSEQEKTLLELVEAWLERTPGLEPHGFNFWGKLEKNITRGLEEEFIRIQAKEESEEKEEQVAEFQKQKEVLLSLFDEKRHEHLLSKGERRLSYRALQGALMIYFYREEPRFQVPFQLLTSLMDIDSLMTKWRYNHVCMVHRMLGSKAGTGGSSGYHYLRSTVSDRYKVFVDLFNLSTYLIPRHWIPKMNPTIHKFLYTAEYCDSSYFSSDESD

## O=C(Cn1cnc2onc(-c3ccc(F)cc3)c2c1=O)Nc1ccc(C(F)(F)F)cc1 [Compound 23]
IDO1 [1]
  cell-based IDO1 inhibition: no activity was detected
other
  melting point: 225 to 227 °C
IDO1 [2]
  hIDO1 inhibition (in words): low micromolar range
IDO1 [2]; recombinant hIDO1, mean ± SD of at least two independent determinations, read-out: IDO1 IC50
  IC50: 23 µM
Hep G2 cell line
  cytotoxicity profile: satisfying cytotoxicity profile
hTDO
  hTDO inhibition (in words): no activity

Reference: publication PMC8001472, “Novel Selective IDO1 Inhibitors with Isoxazolo[5,4-d]pyrimidin-4(5H)-one Scaffold” (Pharmaceuticals, 2021)
